Experimental findings from patent US20080090805A1, “CB-1 MODULATING COMPOUNDS AND THEIR USE” (ACADIA PHARMACEUTICALS INC., priority 2005, published 2008) are described below.

Like-named read-outs stand apart in the source and are kept apart here.

This assay concerns the target CB1 (mutant) (Homo sapiens, UniProt P21554). Nature of the assay: R-SAT functional receptor assay, CB1 (mutant, truncated after amino acid 417). Type of assay: cell-based. Conditions: R-SAT CB1; for IC50 / pIC50: receptor form (mutant or wild-type) not stated; for Emax / % Inhibition: receptor form not stated, relative to SR141716 (100%); for Emax: read-out: % Inhibition.

Setting [1] is: Appendix A, read-out: pIC50 (converted).

Sequence of CB1 (mutant) (P21554 1-417, change not shown): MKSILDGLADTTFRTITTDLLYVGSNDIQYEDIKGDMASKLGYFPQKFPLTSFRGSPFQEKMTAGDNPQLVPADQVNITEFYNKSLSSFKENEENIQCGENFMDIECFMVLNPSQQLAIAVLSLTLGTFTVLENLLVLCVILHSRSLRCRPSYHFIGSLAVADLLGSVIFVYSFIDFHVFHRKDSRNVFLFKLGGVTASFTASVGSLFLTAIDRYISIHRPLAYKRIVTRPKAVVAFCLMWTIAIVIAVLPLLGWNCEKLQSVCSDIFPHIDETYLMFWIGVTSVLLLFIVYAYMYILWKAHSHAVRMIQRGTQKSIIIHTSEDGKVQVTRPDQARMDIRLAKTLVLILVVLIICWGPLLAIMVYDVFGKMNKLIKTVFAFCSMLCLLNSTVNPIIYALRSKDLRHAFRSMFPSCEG

As to `CCCNC(=O)c1ccc2c(c1)N=C(c1ccc(Cl)cc1F)c1ccccc1S2` [drawing 851], the IC50 under setting [1] is 12.6 nM. In addition, the Emax (Appendix A) was determined as 101%.

As to `COc1ccc(C2=Nc3cc(C(=O)NC4CCCC4)ccc3Sc3ccccc32)cc1` [drawing 852], the IC50 under setting [1] is 158 nM. For the same molecule, the Emax (Appendix A) worked out at 103%. Taken in the same sequence, the figures for `CCCCNC(=O)c1ccc2c(n1)N=C(c1ccccc1)c1ccccc1S2` were 12.6 nM and 98%. `O=C(c1ccc2c(c1)N=C(c1ccccc1F)c1ccccc1S2)N1CCCCC1`: the IC50 under setting [1] is 79.4 nM. For the same molecule, the Emax (Appendix A) was 73%.

On to `CONC(=O)c1ccc2c(c1)N=C(c1ncccc1C)c1ccccc1S2`, for which, where the note is “Appendix A”, the pIC50 is on record as 1.0 and the Emax is 8%. `O=C(NNCC(F)(F)F)c1ccc2c(c1)N=C(c1cccc(Cl)c1)c1ccccc1S2` [drawing 678]: the IC50 under setting [1] was 63.1 nM. Also, the Emax (Appendix A) worked out at 99%. Take `O=C(NCc1ccccn1)c1ccc2c(c1)N=C(c1ccc(Br)cc1)c1ccccc1S2` [drawing 612]: the IC50 under setting [1] was 50.1 nM. Besides, the Emax (Appendix A) turned out to be 90%. On to `O=C(Cc1ccccc1)NNC(=O)c1ccc2c(c1)N=C(c1ccc(Cl)cc1)c1ccccc1S2` [drawing 588], for which the IC50 under setting [1] is 50.1 nM. Besides, the Emax (Appendix A) worked out at 85%. Taken in the same sequence, the figures for `CC(C)CNC(=O)c1ccc2c(c1)N=C(c1ccc(Cl)cc1)c1ccc(F)cc1S2` [drawing 949] were 20 nM and 110%. Taken in the same sequence, the figures for `CC(C)NC(=O)c1ccc2c(c1)N=C(c1ccccc1F)c1ccccc1S2` were 251 nM and 82%. For the molecule `O=C(NCc1ccccc1)c1ccc2c(c1)N=C(C1CCCCC1)c1ccccc1S2` [drawing 877], the IC50 under setting [1] was 15.8 nM. Where the note is “Appendix A”, the Emax turned out to be 97%. Taken in the same sequence, the figures for `O=C(NNC(=O)c1ccc2c(c1)N=C(c1ccc(Cl)cc1)c1ccccc1S2)c1ccccc1` were 398 nM and 71%. In the case of `CCCC1=Nc2cc(C(=O)NCc3ccccc3OC)ccc2Sc2ccccc21`, under “Appendix A”, the Emax amounted to 91%. Where the note is “pIC50, Appendix A”, the IC50 was 63.1 nM. For `Cc1ccc(CNC(=O)c2ccc3c(c2)N=C(c2ccc(Cl)s2)c2ccccc2S3)o1` [drawing 765], the IC50 under setting [1] is 10 nM. For the same molecule, the Emax (Appendix A) worked out at 92%.

With `CC(C)CNC(=O)c1ccc2c(c1)N=C(c1ccccc1Cl)c1ccccc1S2`, where the note is “Appendix A”, the Emax worked out at 86%. On to `CCN(CCNC(=O)c1ccc2c(c1)N=C(c1ccccc1F)c1ccccc1S2)c1ccccc1` [drawing 1117], for which the IC50 under setting [1] is 39.8 nM. Further, the Emax (Appendix A) stood at 100%.

`O=C(NCc1cccnc1)c1ccc2c(c1)N=C(c1ccc(Cl)c(Cl)c1)c1ccccc1S2` [drawing 687]: under “Appendix A”, the pIC50 is 8.2 and the “% Inhibition” value is recorded as 114%. Consider `Cc1ccc(CNC(=O)c2ccc3c(c2)N=C(c2ccc(Cl)cc2)c2ccccc2S3)o1` [drawing 1141], for which, under “Appendix A”, the Emax stood at 93%. The same molecule had an IC50 (pIC50, Appendix A) of 39.8 nM. Turning to `NS(=O)(=O)c1ccc(CNC(=O)C2C=C3N=C(N4CCCCC4)c4ccccc4SC3=CC2)cc1` (centres unmarked), the IC50 under setting [1] was 398 nM. Moreover, the Emax (Appendix A) was 78%. Regarding `O=C(NCCc1ccc(Cl)cc1)c1ccc2c(c1)N=C(c1ccccc1F)c1ccccc1S2` [drawing 1085], the Emax (Appendix A) turned out to be 101%. In addition, the IC50 (pIC50, Appendix A) was 31.6 nM. As for `O=C(NCc1cccnc1)c1ccc2c(c1)N=C(c1ccc(Cl)cc1)c1ccccc1S2` [drawing 1093], the IC50 under setting [1] is 31.6 nM. Also, the Emax (Appendix A) worked out at 88%. For `O=C(NCc1ccco1)c1ccc2c(c1)N=C(c1ccc(Cl)s1)c1ccccc1S2` [drawing 621], the IC50 under setting [1] is 3.98 nM. The Emax (Appendix A) came to 118%. Take `O=C(NN1CCCCC1)c1ccc2c(c1)N=C(c1cccc(F)c1)c1ccccc1S2` [drawing 929]: the Emax (Appendix A) was found to be 111%. This molecule had an IC50 (pIC50, Appendix A) of 15.8 nM. In the case of `CCCC1=Nc2cc(C(=O)NCCCOC(C)C)ccc2Sc2ccccc21`, under setting [1], the IC50 was 63.1 nM. Also, the Emax (Appendix A) amounted to 117%. For `O=C(NCCc1ccccn1)c1ccc2c(c1)N=C(c1ccc(Cl)cc1)c1ccccc1S2` [drawing 1049], in that order: 31.6 nM and 93%. On to `CON(C)C(=O)c1ccc2c(c1)N=C(c1ccc(Cl)cc1F)c1ccccc1S2`, for which the IC50 under setting [1] was 1580 nM. Further, the Emax (Appendix A) worked out at 46%. For `Cc1ccc(CNC(=O)c2ccc3c(c2)N=C(c2ccc(Cl)cc2F)c2ccccc2S3)o1` [drawing 1039], in that order: 31.6 nM and 76%. For the molecule `Cc1ccc(N2CCN(C(=O)c3ccc4c(c3)N=C(CC(C)C)c3ccccc3S4)CC2)c(C)c1`, the IC50 under setting [1] is 251 nM. The Emax (Appendix A) was 105%. Regarding `O=C(NCCCC(F)(F)F)c1ccc2c(c1)N=C(c1ccccn1)c1ccccc1S2` [drawing 871], the IC50 under setting [1] is 15.8 nM. Also, where the note is “Appendix A”, the Emax was 117%. Take `O=C(NCc1ccc(F)cc1)c1ccc2c(c1)N=C(c1ccc(Cl)cc1)c1ccccc1S2(=O)=O` [drawing 961]: the IC50 under setting [1] is 20 nM. The Emax (Appendix A) amounted to 108%. Taken in the same sequence, the figures for `O=C(NC1CCCCNC1=O)c1ccc2c(c1)N=C(c1ccc(F)cc1)c1ccccc1S2` (centres unmarked) were 251 nM and 83%. As to `CC(C)CNC(=O)c1ccc2c(c1)N=C(c1ccc(Cl)cn1)c1ccc(Cl)cc1S2` [drawing 1172], under “Appendix A”, the Emax amounted to 27%.

Turning to `O=C(NCc1ccccc1Br)c1ccc2c(c1)N=C(C1CCCCC1)c1ccccc1S2` [drawing 548], the IC50 under setting [1] was 39.8 nM. Further, for the setting “Appendix A”, the Emax is 85%. With `CCCC1=Nc2cc(C(=O)NCCN3CCN(c4cccc(C)c4C)CC3)ccc2Sc2ccccc21`, the IC50 under setting [1] is 3160 nM. Further, the Emax (Appendix A) came to 84%. In the case of `O=C(NCCc1ccc(Cl)cc1)c1ccc2c(c1)N=C(C1CCCCC1)c1ccccc1S2` [drawing 889], under setting [1], the IC50 is 15.8 nM. Besides, the Emax (Appendix A) worked out at 104%.

For the molecule `Cc1cccnc1C1=Nc2cc(C(=O)NCCC(C)C)ccc2Sc2ccccc21`, the IC50 under setting [1] is 63.1 nM. In addition, the Emax (Appendix A) amounted to 94%. For `O=C(NN1CCCCCC1)c1ccc2c(c1)N=C(c1ccc(Cl)s1)c1ccccc1S2` [drawing 797], in that order: 10 nM and 105%. For `COCCNC(=O)c1ccc2c(c1)N=C(c1ccc(Br)cc1)c1ccccc1S2` [drawing 1081], under setting [1], the IC50 was 31.6 nM. The Emax (Appendix A) is 69%. Turning to `CCCCNC(=O)c1ccc2c(c1)N=C(c1ccccc1)c1ccccc1S2` [drawing 761], under setting [1], the IC50 is 10 nM. Further, under “Appendix A”, the Emax is 104%.

On to `CCCSCCCNC(=O)c1ccc2c(c1)N=C(CCC)c1ccccc1S2`, for which, under setting [1], the IC50 is 1580 nM. Moreover, the Emax (Appendix A) stood at 87%. With `Cc1cccc(C2=Nc3cc(C(=O)NCc4ccc(C)o4)ccc3Sc3ccccc32)n1` [drawing 805], the IC50 under setting [1] is 10 nM. Moreover, the Emax (Appendix A) came out at 96%. Take `O=C(NN1CCCCC1)c1ccc2c(c1)N=C(C1CCCCC1)c1ccccc1S2` [drawing 987]: for the setting “Appendix A”, the “% Inhibition” value was 101%. Turning to `O=C(NCc1cccs1)c1ccc2c(c1)N=C(c1cccc(F)c1)c1ccccc1S2` [drawing 593], where the note is “Appendix A”, the pIC50 came to 8.5 and the “% Inhibition” value is recorded as 93%. `O=C(NC1CCC(F)(F)CC1)c1ccc2c(c1)N=C(c1cccc(F)c1)c1ccccc1S2` [drawing 659]: under setting [1], the IC50 is 6.31 nM. Under “Appendix A”, the Emax was 77%.

Take `CCCCN(C)C(=O)c1ccc2c(c1)N=C(c1cccc(Cl)c1)c1ccccc1S2`: the Emax (Appendix A) was 82%. The molecule further had an IC50 (pIC50, Appendix A) of 79.4 nM. On to `O=C(NCCc1ccc(Cl)cc1)c1ccc2c(c1)N=C(N1CCC(F)CC1)c1ccccc1S2` [drawing 1119], for which the IC50 under setting [1] is 39.8 nM. Further, the Emax (Appendix A) is 103%. In the case of `O=C(NC1CCC(F)(F)CC1)c1ccc2c(c1)N=C(c1ccccn1)c1ccccc1S2` [drawing 564], the IC50 under setting [1] is 50.1 nM. The Emax (Appendix A) came out at 79%. `O=C(NCCc1cccnc1)c1ccc2c(c1)N=C(c1ccccc1F)c1ccccc1S2`: under setting [1], the IC50 is 79.4 nM. Moreover, the Emax (Appendix A) turned out to be 110%.

As to `COc1ccccc1C1=Nc2cc(C(=O)NC3CCCCC3)ccc2Sc2ccccc21`, the IC50 under setting [1] is 316 nM. In addition, the Emax (Appendix A) came out at 72%.

On to `CC(C)CCNC(=O)c1ccc2c(c1)N=C(c1cccc(Cl)c1)c1ccccc1S2` [drawing 567], for which the IC50 under setting [1] was 2.51 nM. The Emax (Appendix A) was 115%. Take `CCCC1=NC2=C(CCC(C(=O)NCCc3ccc(OCC)cc3)=C2)Sc2ccccc21`: the IC50 under setting [1] is 158 nM. The Emax (Appendix A) came out at 102%. `CCCCNC(=O)c1ccc2c(c1)N=C(c1ccc(Cl)s1)c1ccccc1S2` [drawing 575]: under setting [1], the IC50 is 3.16 nM. In addition, the “% Inhibition” value (Appendix A) is 97%.

`O=C(NCCc1cccnc1)c1ccc2c(c1)N=C(c1cccc(F)c1)c1ccccc1S2` [drawing 981]: the Emax (Appendix A) is 94%. Also, the IC50 (pIC50, Appendix A) is 20 nM. As for `Cc1ccc(CNC(=O)c2ccc3c(c2)N=C(c2ccc(F)cc2)c2ccccc2S3)o1` [drawing 577], under setting [1], the IC50 was 3.16 nM. Further, for the setting “Appendix A”, the Emax amounted to 65%. Regarding `O=C(NCc1ccccc1Cl)c1ccc2c(c1)N=C(c1cccc(Cl)c1)c1ccccc1S2` [drawing 955], the IC50 under setting [1] is 20 nM. Besides, the Emax (Appendix A) was found to be 102%.

On to `O=C(Cc1ccccc1)NNC(=O)c1ccc2c(c1)N=C(c1ccc(F)cc1)c1ccccc1S2` [drawing 840], for which the IC50 under setting [1] was 158 nM. Besides, the Emax (Appendix A) was found to be 98%.

As to `O=C(NC1CCCC1)c1ccc2c(c1)N=C(c1ccc(Cl)cc1Cl)c1ccccc1S2`, the Emax (Appendix A) is 52%. Consider `CCCNC1=Nc2cc(C(=O)NN3CCCCC3)ccc2Sc2ccccc21`, for which the IC50 under setting [1] is 1580 nM. The Emax (Appendix A) is 89%.

Take `CC(C)CNC(=O)c1ccc2c(c1)N=C(c1ccc(Br)cc1)c1ccccc1S2` [drawing 781]: the Emax (Appendix A) is 80%. The molecule also showed an IC50 (pIC50, Appendix A) of 10 nM. Regarding `O=C(NCc1ccccc1)c1ccc2c(c1)N=C(c1ccc(Cl)cc1)c1ccccc1S2` [drawing 647], the IC50 under setting [1] was 5.01 nM. For the same molecule, the Emax (Appendix A) was determined as 105%.
